One may read the kinetic solubility as the concentration staying in solution when a stock, usually in DMSO, is diluted into the medium.

In brackets after ≈: the same amount, converted by molar mass.

Here are results for 73 compounds from PubChem BioAssay AID1996.

The conditions of the data set: buffer; pH 7.4; 200.0 µM.
In turn, `CCNC(=O)CC1C(=O)N(c2cccc(C)c2)C(=O)N1CCC(C)C` (stereo not drawn) had a kinetic solubility above 51.8 µg/mL.
Compound `COC(=O)c1c(NC(=O)CCCC(=O)O)sc2c1CCCCC2` returned a kinetic solubility above 50.9 µg/mL.
Compound `Cc1c(NC(=O)COC(=O)c2cccn2C)c(=O)n(-c2ccccc2)n1C` yielded a kinetic solubility above 55.3 µg/mL.
As for `Cc1cc(C)cc(NC(=O)c2cc(C)nc3ccccc23)c1`, the figure is below 0.3 µg/mL; as for `Cc1ccc(C(=O)N2CCN(c3ccccn3)CC2)cc1C`, above 44.3 µg/mL.
As for `CC(CN1C(C)CCCC1C)OC(=O)c1cccc(F)c1.Cl` (stereo not drawn), the figure is above 49.5 µg/mL.
`Cc1nnc(SC(C)C(=O)NC2CCCCC2C)s1` (stereo not drawn): the kinetic solubility was above 44.9 µg/mL.
With `CN(C)S(=O)(=O)c1ccc(C(=O)OCC2CCCO2)cc1` (stereo not drawn), the solubility (kinetic) is above 47 µg/mL.
Compound `CC(Sc1nncs1)C(=O)Nc1ccc(S(=O)(=O)Nc2ncccn2)cc1` (stereo not drawn) returned a kinetic solubility above 63.4 µg/mL.
Compound `COc1ccc(NC(=O)CN(C)CC(=O)NC2CCC(C)CC2)cc1` (stereo not drawn) yielded a kinetic solubility above 52.1 µg/mL.
As for `CC(OC(=O)[C@@H](NC(=O)c1ccco1)C(C)C)C(=O)Nc1ncc(Cl)cc1Cl` (stereo partly drawn), the figure is above 64.2 µg/mL.
`CCN(CC)S(=O)(=O)c1ccc(NC(=O)c2cnccn2)cc1`: the kinetic solubility turned out to be 7.8 µg/mL (≈ 23.3 µM).
As for `COc1ccc(C(C)(C)C)cc1NC(=O)CCN1C(=O)NC(C)(C)C1=O`, the figure is 52.7 µg/mL (≈ 146 µM); as for `COc1ccc(S(N)(=O)=O)cc1C(=O)OCC1CCCCC1`, 48.1 µg/mL (≈ 147 µM); as for `O=c1[nH]c(-c2ccccc2)c(-c2ccccc2)nc1[N+](=O)[O-]`, 42.1 µg/mL (≈ 144 µM).
As for `Cc1ccc(NC(=O)COC(=O)Cc2ccccc2)cc1S(=O)(=O)N1CCOCC1`, the figure is 58.1 µg/mL (≈ 134 µM); as for `COC(=O)N1c2ccccc2CCc2ccccc21`, 36.6 µg/mL (≈ 144 µM); as for `O=C(CN1C(=O)NC2(CCCCCCC2)C1=O)Nc1cccc(Br)c1`, 8.2 µg/mL (≈ 20.1 µM).
Take `CC(C)(C)c1ccc(OCC(O)CN2CCCC2)cc1.Cl` (stereo not drawn): the solubility (kinetic) was above 47.1 µg/mL.
The result for `O=C(N/N=C/c1ccccc1O)C1CCCC1` reads above 34.8 µg/mL; that for `O=C(COC(=O)c1ccc(Br)cc1)NCC1CCCO1` (stereo not drawn), above 51.3 µg/mL; that for `O=C(Cc1c(Cl)cccc1Cl)Nc1ccncc1`, above 42.2 µg/mL.
As for `COc1ccc(CC(=O)Nc2ccc(N(C)C)c3ccccc23)cc1`, the figure is 7.6 µg/mL (≈ 22.7 µM); as for `O=C(COc1ccc(-n2ccnc2)cc1)Nc1cccc(F)c1`, 31.1 µg/mL (≈ 99.9 µM).
Compound `Cc1cccc(Cc2ncc(C(F)(F)F)cc2Cl)c1` gave a solubility (kinetic) below 0.6 µg/mL.
Compound `CCc1nc(Nc2ccc(O)cc2)c2oc3ccccc3c2n1.Cl` showed a solubility (kinetic) of 1.2 µg/mL.
Compound `COc1cc(N)c(Cl)cc1C(=O)OCC(=O)Nc1ccc(N2CCOCC2)cc1` yielded a kinetic solubility of 4.9 µg/mL (≈ 11.7 µM).
The result for `CNC(=S)N1CCn2cccc2C1c1ccc(F)cc1` (stereo not drawn) reads 40.8 µg/mL (≈ 141 µM); that for `Cc1ccc(C(=O)Nc2ccccc2C(=O)NCC2CCCO2)cc1` (stereo not drawn), above 50.8 µg/mL.
The result for `O=C(Nc1ccccc1)N1CCCN(c2c(Cl)cncc2Cl)CC1` reads 10.9 µg/mL (≈ 29.8 µM); that for `COc1cccc(OC)c1C(=O)OCC(=O)NCc1ccco1`, above 47.9 µg/mL.
Take `Cc1c(Cl)cccc1NC(=O)CC1Oc2ccccc2NC1=O` (stereo not drawn): the solubility (kinetic) was 5.7 µg/mL (≈ 17.2 µM).
As for `CCOC(=O)c1sc(NC(=O)C2CCCCC2)nc1C`, the figure is 5 µg/mL (≈ 16.9 µM).
As for `O=C(Nc1cccc(NC(=O)c2ccc([N+](=O)[O-])o2)c1)c1ccco1`, the figure is 4.5 µg/mL (≈ 13.2 µM).
The result for `Cn1ccnc1C(O)(c1ccccc1)c1nccn1C` reads above 40.2 µg/mL.
For `Cn1cc(-c2ccccc2C(=O)O)c(=O)c2ccccc21`, the solubility (kinetic) was above 41.9 µg/mL.
`COc1ccccc1CC(=O)Nc1sc2c(c1C(N)=O)CCCC2` gave a kinetic solubility of 2 µg/mL (≈ 5.81 µM).
`Cc1nc([N+](=O)[O-])cn1CC(O)c1ccccc1` (stereo not drawn) had a kinetic solubility above 37.1 µg/mL.
The result for `COc1cc(OC)c(NC(=S)NCc2ccc(F)cc2)cc1Cl` reads 1 µg/mL (≈ 2.82 µM).
Regarding `Cc1cc(C)c(C#N)c(SCc2ccccc2F)n1`, the solubility (kinetic) was below 0.3 µg/mL.
As for `Cc1ccc(C(=O)NCC(=O)N2CCc3ccccc3C2)cc1C`, the figure is above 48.4 µg/mL; as for `O=[N+]([O-])c1cnc2ccc3ccccc3c2c1`, 3.1 µg/mL (≈ 13.8 µM); as for `Cc1ccc(OCC(=O)NC(C)c2ccccc2)c([N+](=O)[O-])n1` (stereo not drawn), 47.1 µg/mL (≈ 149 µM).
The compound `COc1ccccc1CNC(=O)CN1C(=O)NC2(CCOc3ccccc32)C1=O` (stereo not drawn) registered a kinetic solubility of 7.9 µg/mL (≈ 20 µM).
As for `O=C(Nc1ccc2c(c1)OCO2)C1CC(=O)N(c2cccc(Cl)c2)C1` (stereo not drawn), the figure is 0.9 µg/mL (≈ 2.51 µM); as for `COc1ccc(NC(=O)c2ccc3[nH]c(C)c(C)c3c2)cc1`, 3.6 µg/mL (≈ 12.2 µM).
`O=c1[nH]c(/C=C\c2ccccc2F)nc(O)c1[N+](=O)[O-]` showed a kinetic solubility above 41.6 µg/mL.
The result for `NC(=O)COC(=O)c1ccc(S(=O)(=O)NCc2ccco2)cc1` reads above 50.8 µg/mL; that for `COc1ccc(CC(=S)NCCc2ccccc2)cc1`, 13 µg/mL (≈ 45.5 µM); that for `COc1ccc2[nH]c(C(=O)NCCCn3ccnc3)cc2c1`, above 44.8 µg/mL.
As for `CCC(=O)N1CCN=C1SCc1cc(C)ccc1C`, the figure is 35.6 µg/mL (≈ 129 µM); as for `O=C(NNC(=O)c1ccccc1-n1cccc1)c1cncc(Br)c1`, above 57.8 µg/mL; as for `O=C(CN1C(=O)S/C(=C\C=C\c2ccccc2)C1=O)N1CCOCC1`, 7.8 µg/mL (≈ 21.8 µM).
The result for `Cc1cc(C(=O)COC(=O)/C=C/c2ccc(F)cc2)c(C)n1C` reads 6.2 µg/mL (≈ 19.7 µM).
Take `CCOC(=O)c1c(/N=C/c2ccc(C)cc2O)sc2c1CCN(C)C2`: the solubility (kinetic) came to 11.6 µg/mL (≈ 32.4 µM).
As for `Cc1nccc(-c2cccc(NC(=O)c3ccccc3Cl)c2)n1`, the solubility (kinetic) was determined as 35 µg/mL (≈ 108 µM).
For the compound `O=C(NC1CCCCCC1)C(=O)NC1CC1`, the solubility (kinetic) came to 19.8 µg/mL (≈ 88.3 µM).
The result for `O=C(NCc1ccccc1)NC(=O)c1ccccc1F` reads 21.1 µg/mL (≈ 77.5 µM); that for `CC(C)CNC(=S)N1CCC(Cc2ccccc2)CC1`, 9.3 µg/mL (≈ 32 µM); that for `Cc1cc(Cl)ccc1OCC(=O)NC(=S)Nc1ccc(Cl)cn1`, below 0.3 µg/mL.
The result for `CC1CC(C)CN(CC(O)COCc2ccccc2F)C1.Cl` (stereo not drawn) reads above 49.8 µg/mL; that for `C=CCn1c(NCc2ccc(OC)cc2O)nc2ccccc21`, 37.9 µg/mL (≈ 123 µM); that for `CNC(=S)/N=C(\Nc1ccc(C)cc1)c1ccccc1`, 1.3 µg/mL (≈ 4.59 µM).
Regarding `COc1ccccc1C(=O)NCCSCc1c(F)cccc1Cl`, the kinetic solubility was determined as 13.6 µg/mL (≈ 38.4 µM).
The result for `O=C(NCc1ccccc1)c1ccc2c(c1)C(=O)N(Cc1cccnc1)C2=O` reads 38.1 µg/mL (≈ 103 µM); that for `CCN(CC)c1ccc(C=Nc2ccc(C)cc2C)c(O)c1`, 6.4 µg/mL (≈ 21.6 µM).
Turning to `Cc1ccc(F)cc1NC(=O)CCOc1ccccc1`, the solubility (kinetic) came out at 8.3 µg/mL (≈ 30.4 µM).
Turning to `CC(C(=O)N1CCN(c2ccccc2F)CC1)c1ccc([N+](=O)[O-])cc1` (stereo not drawn), the solubility (kinetic) was found to be 38.8 µg/mL (≈ 109 µM).
On to `Cc1ccc(NC(=O)NC(=O)c2cnccc2C(F)(F)F)c(C)c1`, for which the solubility (kinetic) is 10.9 µg/mL (≈ 32.3 µM).
Compound `N#C/C(=C\Nc1ccc(F)c(Cl)c1)C(=O)C1CC1` came in with a solubility (kinetic) of 1.7 µg/mL (≈ 6.42 µM).
The result for `Cc1ccc(NC(=O)COC(=O)c2cccc(C)c2[N+](=O)[O-])cc1S(=O)(=O)N1CCCCC1` reads 3.8 µg/mL (≈ 7.99 µM); that for `CC(C)OCCCNC(=O)CN1CCN(Cc2ccc(Cl)cc2)C1=O`, above 55.2 µg/mL; that for `Cc1cccc(C(C)C)c1NC(=O)c1c(-c2ccccc2)noc1C`, 0.6 µg/mL (≈ 1.79 µM).
